Assay results taken from patent publication US11938212B2, “Skin care compositions” (Colgate-Palmolive Company, priority 2022, dated 2024).

What was measured:
[1] = system: human derived keratinocytes; assay: ROS detection in H2O2-treated human derived keratinocytes (Example 3: alpha-tocopherol, EGT, niacinamide); format: cell-based; settings: alpha-tocopherol 0.001% as printed, EGT 0.01%, niacinamide 0.01%; for % Decrease in ROS generated in keratinocyte by antioxidant treatment: 0.3 wt.% H2O2; for Fold Change, decrease in ROS generated in keratinocyte by antioxidant treatment (relative to untreated): vs F (0.1% DMSO + 0.3% H2O2)
Method: Hydrogen peroxide treated cells were then treated with: alpha-tocopherol, ergothioneine and niacinamide, respectively and in combination.
Cellular ROS/Superoxide Detection Assay Kit (Abcam—ab139476)

[2] = system: human derived keratinocytes; assay: ROS detection in H2O2-treated human derived keratinocytes (Example 2: alpha-tocopherol, EGT, sodium PCA); settings: vs F (0.1 wt.% DMSO + 0.3 wt.% H2O2); alpha-tocopherol 0.001%, EGT 0.01%, Na PCA 0.01%; 30 min treatment
Method: Keratinocytes were treated with exogenous 0.3 wt. % hydrogen peroxide to induce reactive oxygen species (ROS) production. […] Changes in ROS production were assessed using a ROS Detection Assay Kit and fluorescence microplate reader.
Cell Culture Treatment • 500 uL of each treatment sample was directly applied to the 24-well plates and incubated for 30 mins. • Post incubation: each well was washed with the wash buffer (1×) provided. • 250 uL of green Fluorescent (GF) dye containing media (2.5 uL of GF dye/250 uL of media) was then added to each well and incubate for 60 mins. • Post incubation, Fluorescence was read on a microplate reader at 490/525.

Compound	% Decrease in ROS generated in keratinocyte by antioxidant treatment [1] [%]	Fold Change, decrease in ROS generated in keratinocyte by antioxidant treatment (relative to untreated) [1]	Fold Change, decrease in ROS generated in keratinocyte by antioxidant treatment (relative to untreated) [2]
C[N+](C)(C)[C@@H](Cc1c[nH]c(=S)[nH]1)C(=O)[O-] [EGT, Ergothioneine]	15.91	0.31-fold fold decrease	4.43-fold decrease
NC(=O)c1cccnc1 [Niacinamide, niacinamide]		0.24-fold fold decrease	
O=C1CCC(C(=O)[O-])N1.[Na+] (stereo not drawn) [Na PCA, sodium pyrrolidone carboxylic acid]	25.75		2.25-fold decrease
Cc1c(C)c2c(c(C)c1O)CC[C@@](C)(CCC[C@H](C)CCC[C@H](C)CCCC(C)C)O2 [Alpha-tocopherol, alpha-tocopherol]	20.79	0.4-fold fold decrease	4.21-fold decrease
